Data as given in patent US8592469B2, “Diazonamide analogs” (Joyant Pharmaceuticals, Inc., priority 2012, dated 2013).

Experiments:
[1] = system: U937 cells; assay: Cell viability assay (Cell-Titer-Glo) in U937 cells; type: cell-based; conditions: Homo sapiens, U-937, 48 hour treatment, test compounds 1 nM to 1 μM
Method: (§1) Cell viability assays were run using standard protocols known to those of skill in art. Cells were plated in 96 well plates at the density of 3,000-10,000 cells per well. Twenty four hours later, cells were treated with increasing concentration of test compounds (1 nM to 1 μM). After another 48 hour, cell survival was measured using Cell-Titer-Glo® reagent (Promega) following the protocol provided by the manufacture. The IC50 value was determined as the concentration of test compound that kills 50% of the cell population.
(§2) Cell viability data generated according to the protocol described above was generated for representative compounds in A2058 and U937 cells. The compounds shown in Table 1 were prepared by the methods described herein for structurally similar compounds. The reference compound was a synthetic diazonamide analog having the structure: […]

[2] = system: A2058 cells; assay: Cell viability assay (Cell-Titer-Glo) in A2058 cells; type: cell-based; conditions: Homo sapiens, 48 hour treatment, test compounds 1 nM to 1 μM
Method: as §1, §2

Compound: COC(=O)Nc1coc(-c2nc3oc2C24c5ccccc5N[C@H]2Oc2ccc(cc24)CC(NC(=O)[C@@H](O)C(C)C)C(=O)N[C@H]3C(C)C)n1 (some centres unmarked) [Compound 37]
- IC50 [1]: 178 nM
- IC50 [2]: 235 nM

Compound: CC(=O)Nc1oc(-c2nc3oc2C24c5ccccc5N[C@H]2Oc2ccc(cc24)CC(NC(=O)[C@@H](O)C(C)C)C(=O)N[C@H]3C(C)C)nc1C#N (some centres unmarked) [Compound 38]
- IC50 [1]: > 1000 nM
- IC50 [2]: > 1000 nM

Compound: CC(C)[C@H](O)C(=O)N[C@H]1Cc2ccc3c(c2)C2(C4=C(c5nc(C#N)co5)N=C(O4)[C@H](C(C)C)NC1=O)c1ccccc1N[C@H]2O3 (some centres unmarked) [Compound 39]
- IC50 [1]: 71 nM
- IC50 [2]: 23 nM

Compound: Cc1oc(-c2nc3oc2[C@@]24c5ccccc5NC2Oc2ccc(cc24)CC(NC(=O)[C@@H](O)C(C)C)C(=O)N[C@H]3C(C)C)nc1C#N (some centres unmarked) [Compound 40]
- IC50 [1]: 210 nM
- IC50 [2]: 182 nM

Compound: CC(C)[C@H](O)C(=O)NC1Cc2ccc3c(c2)C2(C4=C(c5nc(C6OCCCO6)co5)N=C(O4)[C@H](C(C)C)NC1=O)c1ccccc1N[C@H]2O3 (some centres unmarked) [Compound 41]
- IC50 [1]: 65 nM
- IC50 [2]: 65 nM

Compound: CC(C)[C@H](O)C(=O)NC1Cc2ccc3c(c2)C2(C4=C(c5nc(C6OCCO6)co5)N=C(O4)[C@H](C(C)C)NC1=O)c1ccccc1N[C@H]2O3 (some centres unmarked) [Compound 42]
- IC50 [1]: 43 nM
- IC50 [2]: 49 nM

Compound: CC(C)[C@H](O)C(=O)N[C@H]1Cc2ccc3c(c2)C2(C4=C(c5nc(C6=NCCO6)co5)N=C(O4)[C@H](C(C)C)NC1=O)c1ccccc1N[C@H]2O3 (some centres unmarked) [Compound 43]
- IC50 [1]: 19 nM
- IC50 [2]: 22 nM

Compound: CC(C)[C@H](O)C(=O)NC1Cc2ccc3c(c2)[C@]2(C4=C(c5nc(-c6nnn[nH]6)co5)N=C(O4)[C@H](C(C)C)NC1=O)c1ccccc1NC2O3 (some centres unmarked) [Compound 44]
- IC50 [1]: > 1000 nM
- IC50 [2]: > 1000 nM

Compound: CC(C)[C@H](O)C(=O)NC1Cc2ccc3c(c2)[C@]2(C4=C(c5nc(-c6ncc[nH]6)co5)N=C(O4)[C@H](C(C)C)NC1=O)c1ccccc1NC2O3 (some centres unmarked) [Compound 45]
- IC50 [1]: 318 nM
- IC50 [2]: 589 nM

Compound: Cc1nc(-c2coc(-c3nc4oc3[C@@]35c6ccccc6NC3Oc3ccc(cc35)C[C@H](NC(=O)[C@@H](O)C(C)C)C(=O)N[C@H]4C(C)C)n2)no1 (some centres unmarked) [Compound 46]
- IC50 [1]: 76.9 nM
- IC50 [2]: 49 nM

Compound: Cc1noc(-c2coc(-c3nc4oc3[C@@]35c6ccccc6NC3Oc3ccc(cc35)C[C@H](NC(=O)[C@@H](O)C(C)C)C(=O)N[C@H]4C(C)(C)C)n2)n1 (some centres unmarked) [Compound 47]
- IC50 [1]: 14.2 nM
- IC50 [2]: 7.06 nM

Compound: Cc1nnc(-c2coc(-c3nc4oc3[C@@]35c6ccccc6NC3Oc3ccc(cc35)C[C@H](NC(=O)[C@@H](O)C(C)C)C(=O)N[C@H]4C(C)(C)C)n2)o1 (some centres unmarked) [Compound 48]
- IC50 [1]: 6.34 nM
- IC50 [2]: 6.11 nM

Compound: COC(=O)c1coc(-c2nc3oc2C24c5ccccc5NC2Oc2ccc(cc24)C[C@H](NC(=O)[C@@H](O)C(C)C)C(=O)N[C@H]3CC(C)C)n1 (some centres unmarked) [Compound 49]
- IC50 [1]: 223 nM
- IC50 [2]: > 1000 nM

Compound: COC(=O)c1coc(-c2nc3oc2C24c5ccccc5NC2Oc2ccc(cc24)C[C@H](NC(=O)[C@@H](O)C(C)C)C(=O)N[C@H]3C(C)(C)C)n1 (some centres unmarked) [Compound 50]
- IC50 [1]: 12 nM
- IC50 [2]: 53 nM

Compound: COC(=O)c1coc(-c2nc3oc2C24c5ccccc5NC2Oc2ccc(cc24)C[C@H](NC(=O)[C@@H](O)C(C)C)C(=O)N[C@H]3Cc2ccccc2)n1 (some centres unmarked) [Compound 51]
- IC50 [1]: > 1000 nM
- IC50 [2]: > 1000 nM

Compound: CCC[C@@H]1NC(=O)[C@@H](NC(=O)[C@@H](O)C(C)C)Cc2ccc3c(c2)C2(C4=C(c5nc(C(=O)OC)co5)N=C1O4)c1ccccc1NC2O3 (some centres unmarked) [Compound 52]
- IC50 [1]: 71 nM
- IC50 [2]: 257 nM

Compound: COC(=O)c1coc(-c2nc3oc2[C@@]24c5ccccc5NC2Oc2ccc(cc24)C[C@H](NC(=O)[C@@H](O)C(C)C)C(=O)NC3)n1 (some centres unmarked) [Compound 53]
- IC50 [1]: > 1000 nM
- IC50 [2]: > 1000 nM

Compound: COC(=O)c1coc(-c2nc3oc2[C@@]24c5ccccc5NC2Oc2ccc(cc24)C[C@H](NC(=O)[C@@H](O)C(C)C)C2=NC3CO2)n1 (some centres unmarked) [Compound 54]
- IC50 [1]: > 1000 nM
- IC50 [2]: > 1000 nM

Compound: CC(C)[C@H](O)C(=O)N[C@H]1Cc2ccc3c(c2)[C@]2(C4=C(c5nc(CO)co5)N=C(O4)[C@H](C)NC1=O)c1ccccc1NC2O3 (some centres unmarked) [Compound 55]
- IC50 [1]: > 1000 nM
- IC50 [2]: > 1000 nM

Compound: COC(=O)c1coc(-c2nc3oc2[C@@]24c5ccccc5NC2Oc2ccc(cc24)C[C@H](NC(=O)[C@@H](O)C(C)C)C(=O)N[C@H]3C)n1 (some centres unmarked) [Compound 56]
- IC50 [1]: 588 nM
- IC50 [2]: 968 nM

Compound: CC(C)[C@H](O)C(=O)N[C@H]1Cc2ccc3c(c2)[C@]2(C4=C(c5nc(CO)co5)N=C(O4)[C@H](C(C)(C)C)NC1=O)c1ccccc1N[C@@H]2O3 [Compound 57]
- IC50 [1]: 5.3 nM
- IC50 [2]: 8.3 nM

Compound: COC(=O)c1coc(-c2nc3oc2[C@@]24c5ccccc5NC2Oc2ccc(cc24)C[C@H](NC(=O)[C@@H](O)C(C)C)C(=O)N[C@H]3C2CCCCC2)n1 (some centres unmarked) [Compound 58]
- IC50 [1]: 445 nM
- IC50 [2]: > 1000 nM

Compound: CC(C)[C@H](O)C(=O)N[C@H]1Cc2ccc3c(c2)[C@]2(C4=C(c5nc(CO)co5)N=C(O4)[C@H](C4CCCCC4)NC1=O)c1ccccc1NC2O3 (some centres unmarked) [Compound 60]
- IC50 [1]: 795 nM
- IC50 [2]: > 1000 nM

Compound: COC(=O)c1coc(-c2coc([C@@H]3CCCN3C(=O)[C@H](Cc3ccc4c(c3)[C@@H]3c5ccccc5NC3O4)NC(=O)[C@@H](O)C(C)C)n2)n1 (some centres unmarked) [Compound 61]
- IC50 [1]: 761 nM
- IC50 [2]: > 1000 nM

Compound: CC(C)[C@H](O)C(=O)N[C@H]1Cc2ccc3c(c2)C2(C4=C(c5nc(C#N)co5)N=C(O4)[C@H](C(C)(C)C)NC1=O)c1ccccc1N[C@H]2O3 (some centres unmarked) [Compound 62]
- IC50 [1]: 15.6 nM
- IC50 [2]: 2.54 nM

Compound: CCC(O)(CC)C(=O)N[C@H]1Cc2ccc3c(c2)C2(C4=C(c5nc(C(=O)OC)co5)N=C(O4)[C@H](C(C)(C)C)NC1=O)c1ccccc1N[C@H]2O3 (some centres unmarked) [Compound 63]
- IC50 [1]: 1.97 nM
- IC50 [2]: 15.5 nM

Compound: CCC(O)(CC)C(=O)N[C@H]1Cc2ccc3c(c2)C2(C4=C(c5nc(CO)co5)N=C(O4)[C@H](C(C)(C)C)NC1=O)c1ccccc1N[C@H]2O3 (some centres unmarked) [Compound 64]
- IC50 [1]: 45.9 nM
- IC50 [2]: 43.2 nM

Compound: CCC(O)(CC)C(=O)N[C@H]1Cc2ccc3c(c2)C2(C4=C(c5nc(C#N)co5)N=C(O4)[C@H](C(C)(C)C)NC1=O)c1ccccc1N[C@H]2O3 (some centres unmarked) [Compound 65]
- IC50 [1]: 67.6 nM
- IC50 [2]: 16.8 nM

Compound: CC(C)=CC(=O)N[C@H]1Cc2ccc3c(c2)C2(C4=C(c5nc(C#N)co5)N=C(O4)[C@H](C(C)(C)C)NC1=O)c1ccccc1N[C@H]2O3 (some centres unmarked) [Compound 66]
- IC50 [1]: 215 nM
- IC50 [2]: 186 nM

Compound: CC(C)C[C@H](O)C(=O)NC1Cc2ccc3c(c2)C2(C4=C(c5nc(C#N)co5)N=C(O4)[C@H](C(C)(C)C)NC1=O)c1ccccc1N[C@H]2O3 (some centres unmarked) [Compound 67]
- IC50 [1]: 89.7 nM
- IC50 [2]: 35.8 nM

Compound: CCC(C)(O)C(=O)N[C@H]1Cc2ccc3c(c2)C2(C4=C(c5nc(C#N)co5)N=C(O4)[C@H](C(C)(C)C)NC1=O)c1ccccc1N[C@H]2O3 (some centres unmarked) [Compound 68]
- IC50 [1]: 59.6 nM
- IC50 [2]: 21.1 nM

Compound: CCC(C)(C)C(=O)NC1Cc2ccc3c(c2)C2(C4=C(c5nc(C#N)co5)N=C(O4)[C@H](C(C)(C)C)NC1=O)c1ccccc1N[C@H]2O3 (some centres unmarked) [Compound 69]
- IC50 [1]: 225 nM
- IC50 [2]: 95.5 nM

Compound: COC(=O)c1coc(-c2nc3oc2[C@@]24c5ccccc5NC2Oc2c(Cl)cc(cc24)CC(NC(=O)[C@@H](O)C(C)C)C(=O)N[C@H]3C(C)C)n1 (some centres unmarked) [Compound 70]
- IC50 [1]: 15 nM
- IC50 [2]: 77 nM

Compound: COC(=O)c1coc(-c2nc3oc2[C@@]24c5ccccc5NC2Oc2c(F)cc(cc24)CC(NC(=O)[C@@H](O)C(C)C)C(=O)N[C@H]3C(C)C)n1 (some centres unmarked) [Compound 71]
- IC50 [1]: 9.2 nM
- IC50 [2]: 67 nM

Compound: CCCCCCc1cc2cc3c1O[C@@H]1Nc4ccccc4C31c1oc(nc1-c1nc(C(=O)OC)co1)[C@H](C(C)C)NC(=O)[C@@H](NC(=O)[C@@H](O)C(C)C)C2 (some centres unmarked) [Compound 72]
- IC50 [1]: 213 nM
- IC50 [2]: > 300 nM

Compound: COC(=O)c1coc(-c2nc3oc2C24c5ccccc5N[C@H]2Oc2ccc(cc24)CC[C@H](NC(=O)[C@@H](O)C(C)C)C(=O)N[C@H]3C(C)(C)C)n1 (some centres unmarked) [Compound 73]
- IC50 [1]: < 0.1 nM
- IC50 [2]: < 0.1 nM

Compound: COC(=O)c1coc(-c2nc3oc2[C@]24c5ccccc5NC2Oc2ccc(cc24)CC[C@H](NC(=O)[C@@H](O)C(C)C)C(=O)N[C@H]3C(C)(C)C)n1 (some centres unmarked) [Compound 74]
- IC50 [1]: > 100 nM
- IC50 [2]: > 100 nM

Compound: CC(C)[C@H](O)C(=O)N[C@H]1CCc2ccc3c(c2)[C@]2(C4=C(c5nc(CO)co5)N=C(O4)[C@H](C(C)(C)C)NC1=O)c1ccccc1NC2O3 (some centres unmarked) [Compound 75]
- IC50 [1]: 6.55 nM
- IC50 [2]: 1.89 nM

Compound: COC(=O)c1coc(-c2nc3oc2C24c5cc(ccc5O[C@@H]2N(S(C)(=O)=O)c2ccccc24)C[C@H](NC(=O)[C@@H](O)C(C)C)C(=O)N[C@H]3C(C)C)n1 (some centres unmarked) [Compound 76]
- IC50 [1]: 614 nM
- IC50 [2]: > 1000 nM

Compound: CC(C)[C@H](O)C(=O)N[C@H]1Cc2ccc3c(c2)C2(C4=C(c5nc(CO)co5)N=C(O4)[C@H](C(C)C)NC1=O)c1ccccc1N(S(C)(=O)=O)[C@H]2O3 (some centres unmarked) [Compound 77]
- IC50 [1]: 777 nM
- IC50 [2]: > 1000 nM

Compound: COC(=O)c1coc(-c2nc3oc2C24c5cc(ccc5O[C@@H]2N(C)c2ccccc24)C[C@H](NC(=O)[C@@H](O)C(C)C)C(=O)N[C@H]3C(C)C)n1 (some centres unmarked) [Compound 78]
- IC50 [1]: 17.4 nM
- IC50 [2]: 114 nM

Compound: COC(=O)c1coc(-c2nc3oc2C24c5cc(ccc5O[C@@H]2Nc2c(-c5ccccc5)cccc24)C[C@H](NC(=O)[C@@H](O)C(C)C)C(=O)N[C@H]3C(C)C)n1 (some centres unmarked) [Compound 79]
- IC50 [1]: 210 nM
- IC50 [2]: 270 nM

Compound: COC(=O)c1coc(-c2nc3oc2C24c5cc(F)ccc5N[C@H]2Oc2ccc(cc24)C[C@H](NC(=O)[C@@H](O)C(C)C)C(=O)N[C@H]3C(C)C)n1 (some centres unmarked) [Compound 80]
- IC50 [1]: 4.07 nM
- IC50 [2]: 13.6 nM
